From ChEMBL document CHEMBL5725383, “Ethynyl derivatives” (2017)
pEC50: −log10 of the molar value.

Molecular target: Metabotropic glutamate receptor 4 (Homo sapiens, UniProt Q14833)
Test: Ca2+ Mobilization In Vitro Assay: About 24 hrs before an experiment, 5×10^4 cells/well were seeded in poly-D-lysine coated, black/clear-bottomed 96-well plates. The cells were loaded with 2.5 μM Fluo-4AM in loading buffer (1×HBSS, 20 mM HEPES) for 1 hr at 37° C. and washed five times with loading buffer. The cells were transferred into a Functional Drug Screening System 7000 (Hamamatsu, Paris, France), and 11 half logarithmic serial dilutions of test compound at 37° C. were added and the cells were incubated for 10-30 min. with on-line recording of fluorescence. Following this pre-incubation step, the agonist (2S)-2-amino-4-phosphonobutanoic acid (L-AP4) was added to the cells at a concentration corresponding to EC20 with on-line recording of fluorescence; in order to account for day-to-day variations in the responsiveness of cells, the EC20 of L-AP4 was determined immediately ahead of each experiment by recording of a full dose-response curve of L-AP4. Responses were measured as peak increase in fluorescence minus basal (i.e. fluorescence without addition of L-AP4), normalized to the maximal stimulatory effect obtained with saturating concentrations of L-AP4. Graphs were plotted with the % maximal stimulatory using XLfit, a curve fitting program that iteratively plots the data using Levenburg Marquardt algorithm. […]

Sequence of Metabotropic glutamate receptor 4 (Q14833 whole entry): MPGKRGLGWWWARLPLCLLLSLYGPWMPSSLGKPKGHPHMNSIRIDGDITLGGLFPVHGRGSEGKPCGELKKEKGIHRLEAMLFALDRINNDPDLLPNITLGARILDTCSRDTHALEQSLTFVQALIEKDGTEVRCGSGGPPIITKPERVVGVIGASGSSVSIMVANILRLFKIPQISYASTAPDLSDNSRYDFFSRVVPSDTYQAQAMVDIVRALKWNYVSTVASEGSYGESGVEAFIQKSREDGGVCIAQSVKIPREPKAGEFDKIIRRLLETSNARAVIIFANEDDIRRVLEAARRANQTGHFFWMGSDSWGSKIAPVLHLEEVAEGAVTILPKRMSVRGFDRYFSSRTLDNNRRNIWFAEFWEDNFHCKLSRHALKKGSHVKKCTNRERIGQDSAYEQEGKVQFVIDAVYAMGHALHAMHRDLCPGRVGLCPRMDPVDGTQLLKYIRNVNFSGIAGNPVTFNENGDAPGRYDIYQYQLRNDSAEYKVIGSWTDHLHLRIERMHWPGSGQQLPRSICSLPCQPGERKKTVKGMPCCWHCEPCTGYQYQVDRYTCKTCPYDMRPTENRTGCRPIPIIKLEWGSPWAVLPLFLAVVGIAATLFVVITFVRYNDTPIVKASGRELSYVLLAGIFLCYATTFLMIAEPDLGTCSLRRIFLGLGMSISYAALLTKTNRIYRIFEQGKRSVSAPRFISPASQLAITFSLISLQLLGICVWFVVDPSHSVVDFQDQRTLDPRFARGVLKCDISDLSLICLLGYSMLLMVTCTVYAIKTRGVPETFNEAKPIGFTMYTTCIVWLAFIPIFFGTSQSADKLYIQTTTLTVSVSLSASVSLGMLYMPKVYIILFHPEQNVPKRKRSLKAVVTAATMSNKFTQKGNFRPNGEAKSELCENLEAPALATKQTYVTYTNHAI

pEC50: 6.73
Compound: O=c1[nH]c2ncsc2c(=O)n1-c1c(F)cc(C#Cc2ccccc2)cc1F
